Measured values: patent US4599357A, “1-mercaptoalkanoylindoline-2-carboxylic acids” (Ciba-Geigy Corporation, priority 1980, dated 1986)

Tested on: angiotensin I converting enzyme
Assay: inhibition of the angiotensin I pressor response in anesthetized normotensive rats
Type: in vivo
Method: The enzyme renin, normally causes specific hydrolysis of the circulating protein renin-substrate. This hydrolysis generates angiotensin I, which is further hydrolyzed by the action of said converting enzyme to the potent vasoconstrictor angiotensin II. The inhibition of said enzyme prevents the generation of angiotensin II from I and, therefore, attenuates any pressure response following an angiotensin I challenge.
The corresponding in vivo test is performed with male, normotensive rats, which are anesthetized with 100-120 mg/kg i.p. of sodium ethyl-(1-methylpropyl)malonylthiourea. A femoral artery and saphenous vein are cannulated for direct blood pressure measurement and i.v. administration of angiotensin I and compounds of this invention. After the basal blood pressure is stabilized, pressor responses to 3 challenges of 0.33 μg/kg of angiotensin I i.v., in 5 minute intervals, are obtained. Such pressure responses are again obtained 5, 10, 15, 30 and 60 minutes after either i.v., or p.o. administration (stomach tube) of the compounds to be tested, and compared with the initial responses. Any observed decrease of said pressor response is an indication of angiotensin I converting enzyme inhibition, ranging up to 80% after 10 mg/kg i.v., or 50 mg/kg p.o. doses, which decrease may be sustained up to 60 minutes.

C[C@H](CS)C(=O)N1c2ccccc2C[C@H]1C(=O)O [1-(3-mercapto-2S-methylpropanoyl)-indoline-2S-carboxylic acid]
inhibitory effect against the angiotensin I pressure response: inhibitory effect
